What all share (assay type): cell-based
One test has as its target T1, glucagon receptor (Homo sapiens, UniProt P47871).
T1 construct: expressed in transfected cells; host or cells: HEK293
The test is described as follows: cAMP synthesis functional assay (firefly luciferase reporter in HEK293 cells), glucagon receptor. To be noted: Table 1; for Glucagon Receptor relative activity: relative to the native hormone of the indicated receptor. Background: Reporter assays use an easily measured gene product as a stand-in for the process of interest.

In the next test the target is T2, GLP-1 receptor (Homo sapiens, UniProt P43220).
T2 construct: expressed in transfected cells; host or cells: HEK293
The test is described as follows: cAMP synthesis functional assay (firefly luciferase reporter in HEK293 cells), GLP-1 receptor. To be noted: Table 1; for GLP-1 Receptor relative activity: relative to the native hormone of the indicated receptor.

Another test has as its target T3, GIP receptor (Homo sapiens, UniProt P48546).
T3 construct: expressed in transfected cells; host or cells: HEK293
T3 sequence (P48546 22-466): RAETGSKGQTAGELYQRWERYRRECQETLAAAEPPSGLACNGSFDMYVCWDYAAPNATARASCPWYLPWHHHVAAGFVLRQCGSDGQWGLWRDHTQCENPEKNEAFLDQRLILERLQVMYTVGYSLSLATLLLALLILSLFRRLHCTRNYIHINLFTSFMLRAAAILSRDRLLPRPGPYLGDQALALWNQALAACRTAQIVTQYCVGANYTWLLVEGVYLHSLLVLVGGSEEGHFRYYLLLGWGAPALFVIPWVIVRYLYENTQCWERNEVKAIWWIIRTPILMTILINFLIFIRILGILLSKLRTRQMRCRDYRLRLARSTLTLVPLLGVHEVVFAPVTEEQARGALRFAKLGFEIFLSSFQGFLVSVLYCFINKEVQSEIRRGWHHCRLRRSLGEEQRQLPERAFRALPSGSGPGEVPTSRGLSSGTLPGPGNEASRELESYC
The test is described as follows: cAMP synthesis functional assay (firefly luciferase reporter in HEK293 cells), GIP receptor. The conditions noted are these: Table 1; relative to the native hormone of the indicated receptor.

Here are results for six compounds from patent US9062124B2, “GIP-based mixed agonists for treatment of metabolic disorders and obesity” (priority 2008, dated 2015).

Where a SMILES comes first, the peptide text is derived from it. Bridges are numbered along the chain shown (N, C = ends). The star is where a group is joined. Bz = O=C(c1ccccc1)*

T2 sequence (P43220 24-463, species assumed): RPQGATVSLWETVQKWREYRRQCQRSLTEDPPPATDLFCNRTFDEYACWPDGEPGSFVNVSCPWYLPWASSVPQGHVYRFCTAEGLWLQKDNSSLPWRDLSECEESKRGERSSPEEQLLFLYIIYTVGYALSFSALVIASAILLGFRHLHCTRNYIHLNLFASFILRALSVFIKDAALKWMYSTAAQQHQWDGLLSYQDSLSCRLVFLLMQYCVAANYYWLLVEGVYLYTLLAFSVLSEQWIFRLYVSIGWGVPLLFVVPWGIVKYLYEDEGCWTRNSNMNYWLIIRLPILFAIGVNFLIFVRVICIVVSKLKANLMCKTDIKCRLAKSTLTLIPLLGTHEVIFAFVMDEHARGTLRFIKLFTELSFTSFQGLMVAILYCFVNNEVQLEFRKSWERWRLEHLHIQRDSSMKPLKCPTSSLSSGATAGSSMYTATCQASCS
T1 sequence (P47871 26-477): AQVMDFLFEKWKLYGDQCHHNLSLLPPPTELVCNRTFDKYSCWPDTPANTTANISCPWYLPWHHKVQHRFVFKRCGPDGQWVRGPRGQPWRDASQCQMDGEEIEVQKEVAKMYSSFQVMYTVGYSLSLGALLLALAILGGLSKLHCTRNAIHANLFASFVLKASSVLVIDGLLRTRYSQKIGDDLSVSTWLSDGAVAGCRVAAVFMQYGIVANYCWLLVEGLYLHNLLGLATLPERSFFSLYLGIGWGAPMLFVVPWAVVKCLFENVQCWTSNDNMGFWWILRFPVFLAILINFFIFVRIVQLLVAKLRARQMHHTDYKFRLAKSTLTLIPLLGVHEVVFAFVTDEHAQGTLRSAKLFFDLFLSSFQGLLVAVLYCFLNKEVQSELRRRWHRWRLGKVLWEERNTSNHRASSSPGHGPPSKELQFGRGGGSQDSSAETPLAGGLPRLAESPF

Consider `CC[C@H](C)[C@H](NC(=O)[C@H](CO)NC(=O)[C@H](Cc1ccc(O)cc1)NC(=O)[C@H](CC(=O)O)NC(=O)[C@H](CO)NC(=O)[C@@H](NC(=O)[C@H](Cc1ccccc1)NC(=O)[C@@H](NC(=O)CNC(=O)[C@H](CCC(N)=O)NC(=O)[C@H](CO)NC(=O)[C@@H](N)Cc1ccc(O)cc1)[C@@H](C)O)[C@@H](C)CC)C(=O)N[C@@H](Cc1ccc(O)cc1)C(=O)N[C@@H](CC(C)C)C(=O)N[C@@H](CC(=O)O)C(=O)N[C@H]1CCC(=O)NCCCC[C@@H](C(=O)N[C@@H](CCC(=O)O)C(=O)N[C@@H](Cc2ccccc2)C(=O)N[C@H](C(=O)N[C@@H](CC(N)=O)C(=O)N[C@@H](Cc2c[nH]c3ccccc23)C(=O)N[C@@H](CC(C)C)C(=O)N[C@@H](CC(C)C)C(=O)N[C@@H](C)C(=O)NCC(=O)NCC(=O)N2CCC[C@H]2C(=O)N[C@@H](CO)C(=O)N[C@@H](CO)C(=O)NCC(=O)N[C@@H](C)C(=O)N2CCC[C@H]2C(=O)N2CCC[C@H]2C(=O)N2CCC[C@H]2C(=O)N[C@@H](CO)C(N)=O)C(C)C)NC(=O)[C@H](C)NC(=O)[C@H](C)NC(=O)[C@H](CCC(N)=O)NC1=O` [mt-150] (H-YSQGTFISDYSIYLDEQAAKEFVNWLLAGGPSSGAPPPS-NH2; lactam 16-20; N-terminus assumed), for which the “Glucagon Receptor relative activity” value at glucagon receptor is recorded as 316.67%. The “GLP-1 Receptor relative activity” value at GLP-1 receptor amounted to 1.09%. Also, the “GIP Receptor relative activity” value at GIP receptor was determined as 26.72%.

Turning to `CC[C@H](C)[C@H](NC(=O)[C@H](CO)NC(=O)[C@H](Cc1ccc(O)cc1)NC(=O)[C@H](CC(=O)O)NC(=O)[C@H](CO)NC(=O)[C@@H](NC(=O)[C@H](Cc1ccccc1)NC(=O)[C@@H](NC(=O)CNC(=O)[C@H](CCC(N)=O)NC(=O)[C@H](CO)NC(=O)CNC(=O)c1ccccc1)[C@@H](C)O)[C@@H](C)O)C(=O)N[C@@H](Cc1ccc(O)cc1)C(=O)N[C@@H](CC(C)C)C(=O)N[C@@H](CC(=O)O)C(=O)N[C@H]1CCC(=O)NCCCC[C@@H](C(=O)N[C@@H](CCC(=O)O)C(=O)N[C@@H](Cc2ccccc2)C(=O)N[C@H](C(=O)N[C@@H](CC(N)=O)C(=O)N[C@@H](Cc2c[nH]c3ccccc23)C(=O)N[C@@H](CC(C)C)C(=O)N[C@@H](CC(C)C)C(=O)N[C@@H](C)C(=O)NCC(=O)NCC(=O)N2CCC[C@H]2C(=O)N[C@@H](CO)C(=O)N[C@@H](CO)C(=O)NCC(=O)N[C@@H](C)C(=O)N2CCC[C@H]2C(=O)N2CCC[C@H]2C(=O)N2CCC[C@H]2C(=O)N[C@@H](CO)C(N)=O)C(C)C)NC(=O)[C@H](C)NC(=O)[C@H](C)NC(=O)[C@H](CCC(N)=O)NC1=O` [mt-154] (Bz-GSQGTFTSDYSIYLDEQAAKEFVNWLLAGGPSSGAPPPS-NH2; lactam 16-20), on glucagon receptor, the “Glucagon Receptor relative activity” value was found to be 7.40%. For the same compound, the “GLP-1 Receptor relative activity” value at GLP-1 receptor was 0.70%. For the same compound, the “GIP Receptor relative activity” value at GIP receptor is given as 1.07%.

Take `CC(C)C[C@H](NC(=O)[C@H](CC(C)C)NC(=O)[C@H](Cc1c[nH]c2ccccc12)NC(=O)[C@H](CC(N)=O)NC(=O)[C@@H](NC(=O)[C@H](Cc1ccccc1)NC(=O)[C@H](CCC(=O)O)NC(=O)[C@H](CCCCN)NC(=O)[C@H](C)NC(=O)[C@H](C)NC(=O)[C@H](CCC(N)=O)NC(=O)[C@@H]1CCC(=O)NCCCC[C@H](NC(=O)[C@H](CO)NC(=O)[C@H](Cc2ccc(O)cc2)NC(=O)[C@H](CC(=O)O)NC(=O)[C@H](CO)NC(=O)[C@@H](NC(=O)[C@H](Cc2ccccc2)NC(=O)[C@@H](NC(=O)CNC(=O)[C@H](CCC(N)=O)NC(=O)[C@H](CO)NC(=O)[C@@H](N)Cc2ccc(O)cc2)[C@@H](C)O)[C@@H](C)O)C(=O)N[C@@H](Cc2ccc(O)cc2)C(=O)N[C@@H](CC(C)C)C(=O)N[C@@H](CC(=O)O)C(=O)N1)C(C)C)C(=O)N[C@@H](C)C(=O)NCC(=O)NCC(=O)N1CCC[C@H]1C(=O)N[C@@H](CO)C(=O)N[C@@H](CO)C(=O)NCC(=O)N[C@@H](C)C(=O)N1CCC[C@H]1C(=O)N1CCC[C@H]1C(=O)N1CCC[C@H]1C(=O)N[C@@H](CO)C(N)=O` [mt-155] (H-YSQGTFTSDYSKYLDEQAAKEFVNWLLAGGPSSGAPPPS-NH2; lactam 12-16; N-terminus assumed): on glucagon receptor (Glucagon Receptor EC50, nM), the midpoint of the response, the EC50, lay at 1.28 nM. Also, the “Glucagon Receptor relative activity” value on glucagon receptor was determined as 10.93%. Moreover, the “GLP-1 Receptor relative activity” value on GLP-1 receptor was 98.99%. The “GIP Receptor relative activity” value at GIP receptor was 7.02%.

In the case of `CC[C@H](C)[C@H](NC(=O)[C@H](CO)NC(=O)[C@H](Cc1ccc(O)cc1)NC(=O)[C@H](CC(=O)O)NC(=O)[C@H](CO)NC(=O)[C@@H](NC(=O)[C@H](Cc1ccccc1)NC(=O)[C@@H](NC(=O)CNC(=O)[C@H](CCC(N)=O)NC(=O)[C@H](CO)NC(=O)[C@@H](N)Cc1ccc(O)cc1)[C@@H](C)O)[C@@H](C)O)C(=O)N[C@@H](Cc1ccc(O)cc1)C(=O)N[C@@H](CC(C)C)C(=O)N[C@@H](CC(=O)O)C(=O)N[C@@H](CCC(=O)O)C(=O)N[C@@H](CCC(N)=O)C(=O)N[C@@H](C)C(=O)N[C@@H](C)C(=O)N[C@H]1CCCCNC(=O)CC[C@@H](C(=O)N[C@@H](Cc2c[nH]c3ccccc23)C(=O)N[C@@H](CC(C)C)C(=O)N[C@@H](CC(C)C)C(=O)N[C@@H](C)C(=O)NCC(=O)NCC(=O)N2CCC[C@H]2C(=O)N[C@@H](CO)C(=O)N[C@@H](CO)C(=O)NCC(=O)N[C@@H](C)C(=O)N2CCC[C@H]2C(=O)N2CCC[C@H]2C(=O)N2CCC[C@H]2C(=O)N[C@@H](CO)C(N)=O)NC(=O)[C@H](C(C)C)NC(=O)[C@H](Cc2ccccc2)NC(=O)[C@H](CCC(=O)O)NC1=O` [mt-156] (H-YSQGTFTSDYSIYLDEQAAKEFVEWLLAGGPSSGAPPPS-NH2; lactam 20-24; N-terminus assumed), the “Glucagon Receptor relative activity” value on glucagon receptor turned out to be 6.10%. For the same compound, the “GLP-1 Receptor relative activity” value on GLP-1 receptor is 12.20%. On GIP receptor, the “GIP Receptor relative activity” value is recorded as 4.41%.

Regarding `CC[C@H](C)[C@H](NC(=O)[C@H](CO)NC(=O)[C@H](Cc1ccc(O)cc1)NC(=O)[C@H](CC(=O)O)NC(=O)[C@H](CO)NC(=O)[C@@H](NC(=O)[C@H](Cc1ccccc1)NC(=O)[C@@H](NC(=O)CNC(=O)[C@H](CCC(N)=O)NC(=O)[C@H](CO)NC(=O)[C@@H](N)Cc1ccc(O)cc1)[C@@H](C)O)[C@@H](C)O)C(=O)N[C@@H](Cc1ccc(O)cc1)C(=O)N[C@@H](CC(C)C)C(=O)N[C@@H](CC(=O)O)C(=O)N[C@@H](CCC(=O)O)C(=O)N[C@@H](CCC(N)=O)C(=O)N[C@@H](C)C(=O)N[C@@H](C)C(=O)N[C@@H](CCCCN)C(=O)N[C@@H](CCC(=O)O)C(=O)N[C@@H](Cc1ccccc1)C(=O)N[C@H](C(=O)N[C@H]1CCC(=O)NCCCC[C@@H](C(=O)NCC(=O)NCC(=O)N2CCC[C@H]2C(=O)N[C@@H](CO)C(=O)N[C@@H](CO)C(=O)NCC(=O)N[C@@H](C)C(=O)N2CCC[C@H]2C(=O)N2CCC[C@H]2C(=O)N2CCC[C@H]2C(=O)N[C@@H](CO)C(N)=O)NC(=O)[C@H](CC(C)C)NC(=O)[C@H](CC(C)C)NC(=O)[C@H](Cc2c[nH]c3ccccc23)NC1=O)C(C)C` [mt-157] (H-YSQGTFTSDYSIYLDEQAAKEFVEWLLKGGPSSGAPPPS-NH2; lactam 24-28; N-terminus assumed), the “Glucagon Receptor relative activity” value at glucagon receptor was found to be 6.92%. Further, the “GLP-1 Receptor relative activity” value on GLP-1 receptor was determined as 37.04%. Also, the “GIP Receptor relative activity” value at GIP receptor is recorded as 4.00%.

As to `CC[C@H](C)[C@H](NC(=O)[C@H](CO)NC(=O)[C@H](Cc1ccc(O)cc1)NC(=O)[C@H](CC(=O)O)NC(=O)[C@H](CO)NC(=O)[C@@H](NC(=O)[C@H](Cc1ccccc1)NC(=O)[C@@H](NC(=O)CNC(=O)[C@H](CCC(N)=O)NC(=O)[C@H](CO)NC(=O)[C@@H](N)Cc1ccc(O)cc1)[C@@H](C)O)[C@@H](C)O)C(=O)N[C@@H](Cc1ccc(O)cc1)C(=O)N[C@@H](CC(C)C)C(=O)N[C@@H](CC(=O)O)C(=O)N[C@H]1CCC(=O)NCCCC[C@@H](C(=O)N[C@@H](CCC(=O)O)C(=O)N[C@@H](Cc2ccccc2)C(=O)N[C@H](C(=O)N[C@@H](CC(N)=O)C(=O)N[C@@H](Cc2c[nH]c3ccccc23)C(=O)N[C@@H](CC(C)C)C(=O)N[C@@H](CC(C)C)C(=O)N[C@@H](C)C(=O)NCC(N)=O)C(C)C)NC(=O)[C@H](C)NC(=O)[C@H](C)NC(=O)[C@H](CCC(N)=O)NC1=O` [mt-163] (H-YSQGTFTSDYSIYLDEQAAKEFVNWLLAG-NH2; lactam 16-20; N-terminus assumed), on glucagon receptor, the “Glucagon Receptor relative activity” value is on record as 251.85%. At GLP-1 receptor (GLP-1 Receptor EC50, nM), the response was half-maximal at 0.04 nM (EC50). In addition, the “GLP-1 Receptor relative activity” value at GLP-1 receptor was found to be 30.00%. For the same compound, the “GIP Receptor relative activity” value at GIP receptor amounted to 4.73%.
